# Laboratory results: patent publication US8048455B2, “Treatment of cancer and inflammatory disorder” (Academia Sinica, priority 2006, dated 2011)
# Where two headings read alike, the source gives them in different places.
# Key:
# [1] = test system: NO production in LPS-activated RAW 264.7 macrophages; assay: LPS-induced NO production in RAW 264.7 macrophages (Griess reaction); format: cell-based, murine; conditions: Mus musculus, RAW264.7
# Protocol: RAW 264.7 cells were treated with compound for 1 hour, and then incubated for 24 hours with or without LPS. Nitrite levels in cell culture medium were determined using the Griess reaction (Chiang et al. Br J Pharmacol 2005; 146:352-63; Schmidt et al. Determination of nitrite and nitrate by the Griess reaction. In: Feelisch M, Stamler J S, editors. Methods In Nitric Oxide Research. New York: John Wiley & Sons Inc.; 1996. p. 491-'7). Cell viability was examined using the MTT based assay (Scudiero et al. Cancer Res 1988; 48:4827-33).
# RAW 264.7 macrophage cells were treated with or without various concentrations of CREa8 extract for 1 hour, then LPS (1 μg/ml) was added and incubated for 24 hours. […] NO in the culture medium was measured. Percentage of cell viability was also determined using MTT assay. The data represent 3 experiments and are expressed as mean±SD. […]
# The inhibition of LPS-induced NO production by C. rabens extracts or purified dLGG was investigated in murine RAW 264.7 macrophages by determination of nitrite level (equivalent to NO level) in culture medium 24 hours after treatment. […] NO in the culture medium was measured using the Griess reagent. Survival of macrophages after treatment was measured using MTT assay and calculated by the following formula: viable cell number (%)=OD570 (treated cell culture)/0D570 (vehicle control)×100. […]
# iNOS mRNA = iNOS mRNA expression (RT-PCR) in LPS-stimulated RAW264.7 cells; format: cell-based, murine; conditions: LPS 1 μg/mL 6 h
# Protocol: (§1) For each RT-PCR analysis, 2 μg of total RNA isolated with TRIZOL® Reagent was used to synthesize 1st-strand cDNA using […]™ II Reverse Transcriptase (Invitrogen). The iNOS and COX-2 genes were amplified and analyzed using specific oligonucleotide primers and PCR reactions by method described in Chiang et al. Br J Pharmacol 2005; 146:352-63).
# RAW264.7 cells were treated with various concentrations of dLGG for 1 hour, then incubated with LPS (1 μg/mL) for 6 hours. Total cellular RNA was subjected to RT-PCR, and final PCR product resolved by 1% agarose gel electrophoresis.
# COX-2 enzyme = target: T1, COX-2 enzyme (Ovis aries, UniProt P79208); assay: Cyclooxygenase-2 activity assay (chemiluminescent COX inhibitor screening kit); format: biochemical; conditions: COX-2 enzyme and substrates
# T1 construct: purchased Cayman Chemical
# T1 sequence (P79208 17-603): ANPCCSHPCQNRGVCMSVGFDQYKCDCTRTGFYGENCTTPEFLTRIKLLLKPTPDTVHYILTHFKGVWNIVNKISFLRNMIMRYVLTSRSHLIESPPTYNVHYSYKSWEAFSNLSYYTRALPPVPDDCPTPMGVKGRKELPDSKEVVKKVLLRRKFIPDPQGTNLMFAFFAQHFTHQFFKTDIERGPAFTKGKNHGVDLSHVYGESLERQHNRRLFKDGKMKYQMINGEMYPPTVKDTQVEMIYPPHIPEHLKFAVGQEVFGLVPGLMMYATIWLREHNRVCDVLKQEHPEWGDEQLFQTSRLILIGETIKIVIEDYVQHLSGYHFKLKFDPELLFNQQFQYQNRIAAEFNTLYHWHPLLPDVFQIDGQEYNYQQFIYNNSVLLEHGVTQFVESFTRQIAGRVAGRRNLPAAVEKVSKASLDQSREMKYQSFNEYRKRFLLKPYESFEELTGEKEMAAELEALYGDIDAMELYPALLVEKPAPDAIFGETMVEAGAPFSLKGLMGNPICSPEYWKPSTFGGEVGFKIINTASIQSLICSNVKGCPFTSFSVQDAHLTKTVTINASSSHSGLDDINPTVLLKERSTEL
# Protocol: COX-2 inhibition was measured with the chemiluminescent COX inhibitor screening assay kit (Cayman Chemical, Ann Arbor, Mich.).
# The above-mentioned test compounds were incubated with COX-2 enzyme and substrates before measuring the COX-2 activity.
# COX-2 mRNA = COX-2 mRNA expression (RT-PCR) in LPS-stimulated macrophages; format: cell-based, murine; conditions: 75 μg/mL
# Protocol: as §1
# It was further examined whether dLGG affects COX-2 mRNA and protein expression using RT-PCR and immunoblotting. Cells were treated with dLGG for 1 hour, then LPS (1 μg/mL) was added for 18 hours. Total cellular protein (20 μg) was subjected to immunoblotting. Quantification of COX-2 mRNA and protein expression involved normalization to GA3PDH by densitometry.
# NF-κB•DNA complex = assay: Electrophoretic mobility shift assay of NF-κB binding to consensus DNA in LPS-stimulated RAW 264.7 cells; format: cell-based, murine; conditions: for NF-κB•DNA complex, of LPS alone: 90 minutes; for NF-κB•DNA complex level: 75 μg/mL
# Protocol: EMSA was performed with the […]™ Chemiluminescent EMSA kit (Pierce Biotechnology, Rockford, Ill.). […] The DNA-protein complexes were subjected to 5-10% gradient PAGE. Competition assay with unlabeled oligonucleotide (cold DNA) was performed in parallel. […]
smiles,measurement,setting,value
"CC/C=C\C/C=C\C/C=C\CCCCCCCC(=O)OC[C@H](CO[C@@H]1O[C@H](CO)[C@H](O)[C@H](O)[C@H]1O)OC(=O)CCCCCCC/C=C\C/C=C\C/C=C\CC [dLGG, 1,2-di-O-α-linolenoyl-3-O-β-galactopyranosyl-sn-glycerol]",IC50,"[1]; RAW 264.7, LPS 1 μg/mL 24 h, read-out: 50% inhibitory concentration for LPS-induced NO production",~14.7 µM
same,IC50,"[1]; RAW 264.7, compound 1 h then LPS 1 μg/mL 24 h, read-out: IC50 for inhibiting LPS-induced NO production",~11.4 µg/mL
same,Reduction of iNOS mRNA expression,iNOS mRNA,approximately 56%
same,IC50,COX-2 enzyme,5.35 µM
same,Inhibition of COX-2 mRNA expression,COX-2 mRNA,~29%
same,"NF-κB•DNA complex, of LPS alone",NF-κB•DNA complex; 25 μg/mL,77%
same,"NF-κB•DNA complex, of LPS alone",NF-κB•DNA complex; 50 μg/mL,23%
same,NF-κB•DNA complex level,NF-κB•DNA complex; LPS 60 min,0.43 times that of LPS alone (1.0)
same,NF-κB•DNA complex level,NF-κB•DNA complex; LPS 90 min,0.30 times that of LPS alone (1.0)
same,NF-κB•DNA complex level,NF-κB•DNA complex; LPS 120 min,0.16 times that of LPS alone (1.0)
same,NF-κB•DNA complex level,NF-κB•DNA complex; LPS 180 min,0.01 times that of LPS alone (1.0)
same,Inhibition of NF-κB•DNA complex formation (structure-activity study),"NF-κB•DNA complex; 100 μM, LPS 1 μg/mL, 90 min",almost completely inhibited
